In US10093630B2, “Pyrazole compounds and methods of making and using same” (ABIDE THERAPEUTICS, INC., priority 2014, dated 2018):
Where two headings read alike, the source gives them in different places.

Assays:
Assay in all cases: In vitro competitive activity-based protein profiling (gel-based, FP-Rh or HT-01 probe)
Assay type in all cases: biochemical
ABHD6 = molecular target: T1, ABHD6 (Mus musculus, UniProt Q8R2Y0); conditions: for inhibition at 1 µM: 1 μM inhibitor, read-out: % Inhibition at 1 μM, C = ABHD6; for inhibition at 10 µM: 10 μM inhibitor, read-out: % Inhibition at 10 μM, C = ABHD6; for IC50: mouse brain membrane fraction or cell lysates, 30 min preincubation at 37° C., read-out: Mouse (IC50 value, nM) ABHD6
T1 construct: Proteomes (mouse brain membrane fraction or cell lysates); from tissue; host or cells: mouse brain membrane fraction (or cell lysates, not specified)
T1 sequence (Q8R2Y0 1-336): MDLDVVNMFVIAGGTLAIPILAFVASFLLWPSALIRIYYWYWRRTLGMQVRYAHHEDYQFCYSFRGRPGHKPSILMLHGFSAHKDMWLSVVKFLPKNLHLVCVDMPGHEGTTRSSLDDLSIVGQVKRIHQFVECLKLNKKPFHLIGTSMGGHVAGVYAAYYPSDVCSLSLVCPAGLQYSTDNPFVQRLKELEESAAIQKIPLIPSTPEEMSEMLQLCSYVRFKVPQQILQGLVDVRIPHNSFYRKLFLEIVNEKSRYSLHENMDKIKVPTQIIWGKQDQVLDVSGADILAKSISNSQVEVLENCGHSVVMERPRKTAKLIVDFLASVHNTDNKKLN
Outline: (§1)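 Read-out: fluorescent band intensity on SDS-PAGE gels, reporting remaining serine hydrolase activity. Before that, proteome (mouse brain membranes or cell lysates, 1.0 mg/mL) saw a range of inhibitor concentrations for 30 min at 37° C, followed by 30 min probe labelling (FP-Rh or HT-01).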

FAAH = molecular target: T2, FAAH (Mus musculus, UniProt O08914); conditions: for inhibition at 1 µM: 1 μM inhibitor, read-out: % Inhibition at 1 μM, B = FAAH; for inhibition at 10 µM: 10 μM inhibitor, read-out: % Inhibition at 10 μM, B = FAAH; for IC50: mouse brain membrane fraction or cell lysates, 30 min preincubation at 37° C., read-out: Mouse (IC50 value, nM) FAAH
T2 construct: Proteomes (mouse brain membrane fraction or cell lysates); from tissue; host or cells: mouse brain membrane fraction (or cell lysates, not specified)
T2 sequence (O08914 1-579): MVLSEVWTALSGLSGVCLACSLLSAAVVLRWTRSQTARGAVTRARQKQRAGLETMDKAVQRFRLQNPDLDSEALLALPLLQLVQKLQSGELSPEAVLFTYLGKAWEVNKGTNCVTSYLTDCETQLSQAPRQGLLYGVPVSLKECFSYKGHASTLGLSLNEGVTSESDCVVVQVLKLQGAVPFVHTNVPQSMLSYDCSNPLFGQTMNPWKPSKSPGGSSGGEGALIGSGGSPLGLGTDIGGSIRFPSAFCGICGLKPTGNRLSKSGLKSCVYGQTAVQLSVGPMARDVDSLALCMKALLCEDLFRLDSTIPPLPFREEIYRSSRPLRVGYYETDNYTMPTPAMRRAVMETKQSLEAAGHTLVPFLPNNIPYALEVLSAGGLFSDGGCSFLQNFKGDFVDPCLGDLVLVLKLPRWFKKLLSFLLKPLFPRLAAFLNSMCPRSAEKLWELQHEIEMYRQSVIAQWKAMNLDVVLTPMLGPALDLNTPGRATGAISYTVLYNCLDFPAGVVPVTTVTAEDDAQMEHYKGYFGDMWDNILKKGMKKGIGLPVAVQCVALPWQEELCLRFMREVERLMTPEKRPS
Outline: as §1

MAGL = molecular target: T3, MAGL (Mus musculus, UniProt O35678); conditions: for inhibition at 1 µM: 1 μM inhibitor; for inhibition at 10 µM: 10 μM inhibitor; for IC50: mouse brain membrane fraction or cell lysates, 30 min preincubation at 37° C., read-out: Mouse (IC50 value, nM) MAGL
T3 construct: Proteomes (mouse brain membrane fraction or cell lysates); from tissue; host or cells: mouse brain membrane fraction (or cell lysates, not specified)
T3 sequence (O35678 1-303): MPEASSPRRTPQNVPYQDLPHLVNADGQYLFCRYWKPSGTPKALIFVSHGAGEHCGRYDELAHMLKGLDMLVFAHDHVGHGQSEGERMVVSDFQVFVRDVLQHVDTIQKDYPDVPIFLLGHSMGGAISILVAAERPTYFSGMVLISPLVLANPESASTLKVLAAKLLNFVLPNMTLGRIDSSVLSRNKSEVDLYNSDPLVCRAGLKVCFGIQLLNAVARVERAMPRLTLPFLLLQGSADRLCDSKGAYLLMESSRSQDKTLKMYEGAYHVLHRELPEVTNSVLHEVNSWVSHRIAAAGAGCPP
Outline: as §1

PLA2G7 = molecular target: T4, PLA2G7 (Mus musculus, UniProt Q60963); conditions: for inhibition at 1 µM: 1 μM inhibitor, read-out: % Inhibition at 1 μM, D = PLA2G7; for inhibition at 10 µM: 10 μM inhibitor, read-out: % Inhibition at 10 μM, D = PLA2G7; for IC50: mouse brain membrane fraction or cell lysates, 30 min preincubation at 37° C.
T4 construct: Proteomes (mouse brain membrane fraction or cell lysates); from tissue; host or cells: mouse brain membrane fraction (or cell lysates, not specified)
T4 sequence (Q60963 22-440): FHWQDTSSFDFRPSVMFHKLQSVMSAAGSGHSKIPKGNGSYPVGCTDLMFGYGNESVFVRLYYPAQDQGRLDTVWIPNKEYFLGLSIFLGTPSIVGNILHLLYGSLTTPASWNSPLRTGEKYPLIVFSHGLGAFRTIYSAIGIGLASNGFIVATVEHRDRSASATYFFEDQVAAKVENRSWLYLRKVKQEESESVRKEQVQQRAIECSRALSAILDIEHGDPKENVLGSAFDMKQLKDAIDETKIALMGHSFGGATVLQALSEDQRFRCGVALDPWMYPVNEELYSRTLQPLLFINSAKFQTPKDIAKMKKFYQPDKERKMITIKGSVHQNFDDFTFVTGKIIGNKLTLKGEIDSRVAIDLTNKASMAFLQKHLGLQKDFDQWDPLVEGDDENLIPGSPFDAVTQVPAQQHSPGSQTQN
Outline: as §1

| SMILES | inhibition at 1 µM (ABHD6) [%] | inhibition at 10 µM (ABHD6) [%] | inhibition at 1 µM (FAAH) [%] | inhibition at 10 µM (FAAH) [%] | inhibition at 1 µM (MAGL) [%] | inhibition at 10 µM (MAGL) [%] | inhibition at 1 µM (PLA2G7) [%] | inhibition at 10 µM (PLA2G7) [%] | inhibition at 1 µM (ABHD6; gel-based competitive ABPP) [%] | IC50 (ABHD6) [nM] | inhibition at 1 µM (FAAH; gel-based competitive ABPP) [%] | IC50 (FAAH) [nM] | inhibition at 1 µM (MAGL; gel-based competitive ABPP) [%] | IC50 (MAGL) [nM] | inhibition at 1 µM (PLA2G7; gel-based competitive ABPP) [%] | IC50 (PLA2G7) [nM] |
| --- | --- | --- | --- | --- | --- | --- | --- | --- | --- | --- | --- | --- | --- | --- | --- | --- |
| O=C(N1CCN(Cc2ccc(N3CCOCC3)cc2)CC1)n1cc(Cl)cn1 [Example 217, (4-Chloro-1H-pyrazol-1-yl)(4-(4-morpholinobenzyl)piperazin-1-yl)methanone] | > 75 | – | > 75 | – | > 75 | – | > 75 | – | – | – | – | – | – | – | – | – |
| O=C(N1CCN(Cc2ccccc2F)CC1)n1cc(C(F)(F)F)cn1 [Example 276, (4-(2-Fluorobenzyl)piperazin-1-yl)(4-(trifluoromethyl)-1H-pyrazol-1-yl)methanone] | – | – | – | – | – | – | – | – | > 75 | < 100 | > 75 | < 100 | > 75 | < 100 | > 75 | < 100 |
| CN1CCN(C(=O)n2cc(C#N)cn2)CC1 [Example 175, 1-(4-Methylpiperazine-1-carbonyl)-1H-pyrazole-4-carbonitrile] | > 75 | > 75 | 25 to 75 | > 75 | 25 to 75 | > 75 | < 25 | > 75 | – | – | – | – | – | – | – | – |
| CCN(Cc1ccc(N2CCOCC2)cc1)C(=O)n1cc(Cl)cn1 [Example 267, 4-Chloro-N-ethyl-N-(4-morpholinobenzyl)-1H-pyrazole-1-carboxamide] | – | – | – | – | – | – | – | – | < 25 | – | 25 to 75 | – | 25 to 75 | – | < 25 | – |
| CCN(Cc1ccc(C)cc1)C(=O)n1cc(C)cn1 [Example 257, N-Ethyl-4-methyl-N-(4-methylbenzyl)-1H-pyrazole-1-carboxamide] | – | – | – | – | – | – | – | – | < 25 | – | < 25 | – | < 25 | – | < 25 | – |
| O=C(N1CCN(Cc2ccc3ccccc3c2)CC1)n1cc(Br)cn1 [Example 13, (4-Bromo-1H-pyrazol-1-yl)(4-(naphthalen-2-ylmethyl)piperazin-1-yl)methanone] | > 75 | > 75 | > 75 | > 75 | > 75 | > 75 | > 75 | > 75 | – | – | – | – | – | – | – | – |
| Cc1cc(N2CCN(C(=O)n3cc(C(F)(F)F)cn3)CC2)c2ccccc2n1 [Example 210, (4-(2-Methylquinolin-4-yl)piperazin-1-yl)(4-(trifluoromethyl)-1H-pyrazol-1-yl)methanone] | > 75 | > 75 | > 75 | > 75 | > 75 | > 75 | 25 to 75 | > 75 | – | 100 to 1000 | – | > 1000 | – | < 100 | – | < 100 |
| N#Cc1cnn(C(=O)N2CCCN(Cc3ccccc3)CC2)c1 [Example 179, 1-(4-Benzyl-1,4-diazepane-1-carbonyl)-1H-pyrazole-4-carbonitrile] | > 75 | > 75 | > 75 | > 75 | > 75 | > 75 | < 25 | > 75 | – | > 1000 | – | < 100 | – | > 1000 | – | > 1000 |

Now from value to compound:

| inhibition at 1 µM (ABHD6) [%] | inhibition at 10 µM (ABHD6) [%] | inhibition at 1 µM (FAAH) [%] | inhibition at 10 µM (FAAH) [%] | inhibition at 1 µM (MAGL) [%] | inhibition at 10 µM (MAGL) [%] | inhibition at 1 µM (PLA2G7) [%] | inhibition at 10 µM (PLA2G7) [%] | inhibition at 1 µM (ABHD6; gel-based competitive ABPP) [%] | IC50 (ABHD6) [nM] | inhibition at 1 µM (FAAH; gel-based competitive ABPP) [%] | IC50 (FAAH) [nM] | inhibition at 1 µM (MAGL; gel-based competitive ABPP) [%] | IC50 (MAGL) [nM] | inhibition at 1 µM (PLA2G7; gel-based competitive ABPP) [%] | IC50 (PLA2G7) [nM] | SMILES |
| --- | --- | --- | --- | --- | --- | --- | --- | --- | --- | --- | --- | --- | --- | --- | --- | --- |
| > 75 | > 75 | > 75 | > 75 | > 75 | > 75 | > 75 | > 75 | – | – | – | – | – | – | – | – | COc1cc(-c2ccccc2)ccc1CN1CCN(C(=O)n2cc(C(F)(F)F)cn2)CC1 [Example 144, (4-((3-Methoxybiphenyl-4-yl)methyl)piperazin-1-yl)(4-(trifluoromethyl)-1H-pyrazol-1-yl)methanone] |
| > 75 | > 75 | < 25 | 25 to 75 | < 25 | < 25 | > 75 | > 75 | – | – | – | – | – | – | – | – | CS(=O)(=O)N1CCN(C(=O)n2cc(Cl)cn2)CC1 [Example 184, (4-Chloro-1H-pyrazol-1-yl)(4-(methylsulfonyl)piperazin-1-yl)methanone] |
| > 75 | > 75 | – | > 75 | – | < 25 | > 75 | > 75 | – | – | – | – | – | – | – | – | O=C(N1CCN(Cc2ccccn2)CC1)n1cc(-c2ccccc2)cn1 [Example 61, (4-Phenyl-1H-pyrazol-1-yl)(4-(pyridin-2-ylmethyl)piperazin-1-yl)methanone] |
| < 25 | > 75 | > 75 | > 75 | < 25 | > 75 | > 75 | > 75 | – | – | – | – | – | – | – | – | CN(CCN(C)C(=O)n1cc(C(F)(F)F)cn1)C(=O)c1ccccc1 [Example 160, N-methyl-N-(2-(N-methylbenzamido)ethyl)-4-(trifluoromethyl)-1H-pyrazole-1-carboxamide] |
| 25 to 75 | > 75 | – | < 25 | – | 25 to 75 | < 25 | 25 to 75 | – | – | – | – | – | – | – | – | O=C(N1CCN(C(c2ccc(Cl)cc2)c2ccc(Cl)cc2)CC1)n1cc(-c2ccccc2C(F)(F)F)cn1 [Example 123, (4-(Bis(4-chlorophenyl)methyl)piperazin-1-yl)(4-(2-(trifluoromethyl)phenyl)-1H-pyrazol-1-yl)methanone] |
| > 75 | > 75 | 25 to 75 | > 75 | > 75 | > 75 | 25 to 75 | < 25 | – | – | – | – | – | – | – | – | Cc1cnn(C(=O)N2CCN(Cc3ccc(Oc4ccccc4)cc3)CC2)c1 [Example 17, (4-Methyl-1H-pyrazol-1-yl)(4-(4-phenoxybenzyl)piperazin-1-yl)methanone] |
